From patent US12600714B2, “Substituted pyrazinecarboxamide compounds for treating diseases related to EGFR mutation” (WIGEN BIOMEDICINE TECHNOLOGY (SHANGHAI) CO., LTD., priority 2020, dated 2026)

Test system: EGFR (del19/T790M/C797S)
Test: HTRF inhibitory activity assay against EGFR (del19/T790M/C797S) enzyme
Type: biochemical
Protocol: Inhibitory Activity Assay of the Compounds Disclosed Herein Against EGFR (del19/T790M/C797S), EGFR (L858R/T790M/C797S) or EGFR (WT) Enzymes
The inhibitory effects of the compounds against EGFR (del19/T790M/C797S), EGFR (L858R/T790M/C797S) or EGFR (WT) enzyme activity was determined by using HTRF. The procedures are as follows:
The WT or mutant EGFR proteins were incubated with a serially diluted compounds at 28° C. for 10 min followed by addition of biotin-labeled general tyrosine kinase (TK) substrate and ATP. The mixture was incubated at room temperature for 40 min for reaction. After the termination of the reaction, an Eu3+-Cryptate-labeled antibody against TK and streptavidin-XL665 were added and the mixture was incubated at room temperature for 60 min. The luminescences at 615 nm and 665 nm were detected and the ratio of 665/615 was calculated to quantify the level of TK substrate phosphorylation. Inhibition % and IC50 of the compounds were calculated relative to the control group.

Row | Structure (SMILES) | EGFR (del19/T790M/C797S) inhibition (%) (0.3 nM compound)
1 | CN1CC=C(c2nc(C(N)=O)c(Nc3ccc(N4CCC(N5CCN(C)CC5)CC4)cc3)nc2NC2CCOCC2)CC1 [compound 102] | + (+ indicates an inhibition less than or equal to 20%)
2 | CN1CCN(C2CCN(c3ccc(Nc4nc(NC5CCOCC5)c(-c5ccncc5F)nc4C(N)=O)cc3)CC2)CC1 [compound 103] | ++ (++ indicates an inhibition from 20% to 50%)
3 | CN1CCN(C2CCN(c3ccc(Nc4nc(NC5CCOCC5)c(-c5cccc(C(F)F)c5)nc4C(N)=O)cc3)CC2)CC1 [compound 105] | + (+ indicates an inhibition less than or equal to 20%)
4 | CN1CCN(C2CCN(c3ccc(Nc4nc(NC5CCOCC5)c(-c5ccn(C)c(=O)c5)nc4C(N)=O)cc3)CC2)CC1 [compound 106] | + (+ indicates an inhibition less than or equal to 20%)
5 | CN1CCN(C2CCN(c3ccc(Nc4nc(NC5CCOCC5)c(-c5ccccc5NS(C)(=O)=O)nc4C(N)=O)cc3)CC2)CC1 [compound 107] | + (+ indicates an inhibition less than or equal to 20%)
6 | CN1CCN(C2CCN(c3ccc(Nc4nc(NC5CCOCC5)c(C5=CCNCC5)nc4C(N)=O)cc3)CC2)CC1 [compound 109] | + (+ indicates an inhibition less than or equal to 20%)
7 | COc1cc(Nc2nc(NC3CCOCC3)c(-c3ccccc3)nc2C(N)=O)ccc1N1CCC(N2CCN(C)CC2)CC1 [compound 112] | + (+ indicates an inhibition less than or equal to 20%)
8 | COc1cc(N2CCC(N3CCN(C)CC3)CC2)ccc1Nc1nc(NC2CCOCC2)c(-c2ccccc2)nc1C(N)=O [compound 113] | + (+ indicates an inhibition less than or equal to 20%)
9 | CN1CCN(C2CCN(c3ccc(Nc4nc(NC5CCOCC5)c(N5CCCCC5)nc4C(N)=O)cc3)CC2)CC1 [compound 116, 3-((4-(4-(4-methylpiperazin-1-yl)piperidin-1-yl)phenyl)amino)-6-(piperidin-1-yl)-5-((tetrahydro-2H-pyran-4-yl)amino)pyrazine-2-carboxamide] | + (+ indicates an inhibition less than or equal to 20%)
10 | CN(C)CCCNc1nc(Nc2ccc(N3CCC(N4CCN(C)CC4)CC3)cc2)c(C(N)=O)nc1-c1ccccc1 [compound 117] | + (+ indicates an inhibition less than or equal to 20%)
11 | CN1CCN(C2CCN(c3ccc(Nc4nc(N[C@@H]5CCC[C@@H]5O)c(-c5ccccc5)nc4C(N)=O)cc3)CC2)CC1 [compound 133] | ++ (++ indicates an inhibition from 20% to 50%)
12 | CN1CCN(C2CCN(c3ccc(Nc4nc(N[C@@H]5CCC[C@H]5O)c(-c5ccccc5)nc4C(N)=O)cc3)CC2)CC1 [compound 134] | ++ (++ indicates an inhibition from 20% to 50%)
13 | CN1CCN(C2CCN(c3ccc(Nc4nc(N[C@@H]5CC[C@H](O)C5)c(-c5ccccc5)nc4C(N)=O)cc3)CC2)CC1 [compound 136, 5-(((1R,3S)-3-hydroxycyclopentyl)amino)-3-((4-(4-(4-methylpiperazin-1-yl)piperidin-1-yl)phenyl)amino)-6-phenylpyrazine-2-carboxamide] | ++ (++ indicates an inhibition from 20% to 50%)
14 | CN1CCN(C2CCN(c3ccc(Nc4nc(N[C@H]5CC[C@H](O)C5)c(-c5ccccc5)nc4C(N)=O)cc3)CC2)CC1 [compound 138, 5-(((1S,3S)-3-hydroxycyclopentyl)amino)-3-((4-(4-(4-methylpiperazin-1-yl)piperidin-1-yl)phenyl)amino)-6-phenylpyrazine-2-carboxamide] | ++ (++ indicates an inhibition from 20% to 50%)
15 | CN1CCN(C2CCN(c3ccc(Nc4nc(N[C@H]5CC[C@@H](O)C5)c(-c5ccccc5)nc4C(N)=O)cc3)CC2)CC1 [compound 139, 5-(((1S,3R)-3-hydroxycyclopentyl)amino)-3-((4-(4-(4-methylpiperazin-1-yl)piperidin-1-yl)phenyl)amino)-6-phenylpyrazine-2-carboxamide] | ++ (++ indicates an inhibition from 20% to 50%)
16 | Cc1cc(Nc2nc(NC3CCOCC3)c(-c3ccncc3)nc2C(N)=O)ccc1N1CCC(N2CCN(C3CC3)CC2)CC1 [compound 146] | ++ (++ indicates an inhibition from 20% to 50%)
17 | Cc1cc(-c2nc(C(N)=O)c(Nc3ccc(N4CCC(N5CCN(C)CC5)CC4)c(C)c3)nc2NC2CCOCC2)ccn1 [compound 154] | ++ (++ indicates an inhibition from 20% to 50%)
18 | [2H]C([2H])([2H])N1CCN(C2CCN(c3ccc(Nc4nc(NC5CCOCC5)c(-c5ccccn5)nc4C(N)=O)cc3)CC2)CC1 [compound 206] | ++ (++ indicates an inhibition from 20% to 50%)
19 | NC(=O)c1nc(-c2ccccn2)c(NC2CCOCC2)nc1Nc1ccc(N2CCC(N3CCN(C4CC4)CC3)CC2)cc1 [compound 207] | ++ (++ indicates an inhibition from 20% to 50%)
20 | CN1CCN(C2CCN(c3ccc(Nc4nc(NC5CCOCC56CC6)c(-c5ccccn5)nc4C(N)=O)cc3)CC2)CC1 (stereo not drawn) [compound 255] | ++ (++ indicates an inhibition from 20% to 50%)

Row | Structure (SMILES) | EGFR (del19/T790M/C797S) inhibition (%) (0.3 nM compound)
21 | CN1CCN(C2CCN(c3ccc(Nc4nc(NC5CCOC6(CC6)C5)c(-c5ccccn5)nc4C(N)=O)cc3)CC2)CC1 (stereo not drawn) [compound 263] | ++ (++ indicates an inhibition from 20% to 50%)
22 | NC(=O)c1nc(-c2ccccn2)c(NC2CCOC3(CC3)C2)nc1Nc1ccc(N2CCC(N3CCN(C4CC4)CC3)CC2)cc1 (stereo not drawn) [compound 264] | ++ (++ indicates an inhibition from 20% to 50%)
23 | CN1CCN(C2CCN(c3ccc(Nc4nc(NC5CC6(CCOCC6)C5)c(-c5ccccn5)nc4C(N)=O)cc3)CC2)CC1 [compound 271] | ++ (++ indicates an inhibition from 20% to 50%)
24 | Cc1cc(Nc2nc(NC3CC4(CCOCC4)C3)c(-c3ccncc3)nc2C(N)=O)ccc1N1CCC(N2CCN(C)CC2)CC1 [compound 379] | ++ (++ indicates an inhibition from 20% to 50%)
25 | CN1CCN(C2CCN(c3ccc(Nc4nc(NC5CCOCC5)c(-c5ccnc6[nH]ccc56)nc4C(N)=O)cc3F)CC2)CC1 [compound 520] | +++ (+++ indicates an inhibition greater than 50%.)
26 | CC(C)Nc1nc(Nc2ccc(N3CCC(N4CCN(C)CC4)CC3)c(F)c2)c(C(N)=O)nc1-c1cccc2[nH]ccc12 [compound 530] | +++ (+++ indicates an inhibition greater than 50%.)
27 | CN1CCN(C2CCN(c3ccc(Nc4nc(NC5CC5)c(-c5cccc6[nH]ccc56)nc4C(N)=O)cc3F)CC2)CC1 [compound 531] | +++ (+++ indicates an inhibition greater than 50%.)
28 | CN1CCN(C2CCN(c3ccc(Nc4nc(N[C@H]5C[C@H](O)C5)c(-c5cccc6[nH]ccc56)nc4C(N)=O)cc3F)CC2)CC1 [compound 534] | +++ (+++ indicates an inhibition greater than 50%.)
29 | CN1CCN(C2CCN(c3ccc(Nc4nc(NCC(C)(C)O)c(-c5cccc6[nH]ccc56)nc4C(N)=O)cc3F)CC2)CC1 [compound 537] | +++ (+++ indicates an inhibition greater than 50%.)
30 | CN1CCN(C2CCN(c3ccc(Nc4nc(NC5COC5)c(-c5cccc6[nH]ccc56)nc4C(N)=O)cc3F)CC2)CC1 [compound 595] | +++ (+++ indicates an inhibition greater than 50%.)
31 | CN1CCN(C2CCN(c3ccc(Nc4nc(NC5COC5)c(-c5ccnc6[nH]ccc56)nc4C(N)=O)cc3)CC2)CC1 [compound 596] | +++ (+++ indicates an inhibition greater than 50%.)
32 | CC(C)Nc1nc(Nc2ccc(N3CCC(N4CCN(C)CC4)CC3)cc2)c(C(N)=O)nc1-c1ccnc2[nH]ccc12 [compound 609] | +++ (+++ indicates an inhibition greater than 50%.)
33 | CN1CCN(C2CCN(c3ccc(Nc4nc(NC5CC5)c(-c5ccnc6[nH]ccc56)nc4C(N)=O)cc3)CC2)CC1 [compound 610] | +++ (+++ indicates an inhibition greater than 50%.)
34 | CN1CCN(C2CCN(c3ccc(Nc4nc(N[C@H]5C[C@@H](O)C5)c(-c5cc[nH]n5)nc4C(N)=O)cc3)CC2)CC1 [compound 614] | +++ (+++ indicates an inhibition greater than 50%.)
35 | CN1CCN(C2CCN(c3ccc(Nc4nc(N[C@H]5C[C@H](O)C5)c(-c5cc[nH]n5)nc4C(N)=O)cc3)CC2)CC1 [compound 615] | +++ (+++ indicates an inhibition greater than 50%.)
36 | CN1CCN(C2CCN(c3ccc(Nc4nc(NC5CCC(O)C5)c(-c5cc[nH]n5)nc4C(N)=O)cc3)CC2)CC1 (stereo not drawn) [compound 617] | ++ (++ indicates an inhibition from 20% to 50%)
37 | CN1CCN(C2CCN(c3ccc(Nc4nc(NC5CCCC5O)c(-c5cc[nH]n5)nc4C(N)=O)cc3)CC2)CC1 (stereo not drawn) [compound 618] | ++ (++ indicates an inhibition from 20% to 50%)
38 | CN1CCN(C2CCN(c3ccc(Nc4nc(NC5CCOCC5)c(-c5cc[nH]n5)nc4C(N)=O)cc3F)CC2)CC1 [compound 619] | ++ (++ indicates an inhibition from 20% to 50%)
39 | CN1CCN(C2CCN(c3ccc(Nc4nc(N[C@H]5C[C@@H](O)C5)c(-c5cc[nH]n5)nc4C(N)=O)cc3F)CC2)CC1 [compound 620] | ++ (++ indicates an inhibition from 20% to 50%)
